According to PubChem BioAssay AID2060894 (Molecular Pharmacology Branch, DTP, NCI, 2025):

System: K12877-001-R-J1-PDC complex spheroid viability
Assay: Anticancer human tumor K12877-001-R-J1-PDC patient-derived lung adenocarcinoma cell line growth inhibition [RAS]
Details: for IC50: curve of first compound; for viability, T/C: stronger effect = lower value
How it was run: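 Agents were tested in combination matrices in half-log decrements from a top concentration at or near clinical Cmax (10 microM if undetermined). Targets were multi-cell spheroids of tumour lines plus HUVEC and MSC stromal cells.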
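Also: spheroids exposed to agents for one week before readout.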
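For viability, T/C in this document: tumour cells co-cultured with HUVEC and mesenchymal stem cells in spheroids.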

C=CC(=O)N1CCN(c2nc(OCC3CCCN3C)nc3c(F)c(-c4nc(N)cc(C)c4C(F)(F)F)c(Cl)cc23)C(C)C1 (centres undefined) + CCn1c(-c2cc(N3CCN(C)CC3)cnc2C(C)OC)c2c3cc(ccc31)-c1csc(n1)CC(NC(=O)C1CC1C)C(=O)N1CCCC(N1)C(=O)OCC(C)(C)C2
IC50 (second compound 0.000949 µM): > 1 µM
IC50 (second compound 0.003 µM): > 1 µM
IC50 (second compound 0.00949 µM): > 1 µM
IC50 (second compound 0.03 µM): > 1 µM
IC50 (second compound 0.0949 µM): > 1 µM
IC50 (second compound 0.3 µM): > 1 µM
viability, T/C (second compound 0.000949 µM, first compound 0.00316 µM): 80.8%
viability, T/C (second compound 0.000949 µM, first compound 0.01 µM): 71.5%
viability, T/C (second compound 0.000949 µM, first compound 0.0316 µM): 78.4%
viability, T/C (second compound 0.000949 µM, first compound 0.1 µM): 69.2%
viability, T/C (second compound 0.000949 µM, first compound 0.316 µM): 69.5%
viability, T/C (second compound 0.000949 µM, first compound 1 µM): 68%
viability, T/C (second compound 0.003 µM, first compound 0.00316 µM): 66.2%
viability, T/C (second compound 0.003 µM, first compound 0.01 µM): 66.7%
viability, T/C (second compound 0.003 µM, first compound 0.0316 µM): 66.4%
viability, T/C (second compound 0.003 µM, first compound 0.1 µM): 60.6%
viability, T/C (second compound 0.003 µM, first compound 0.316 µM): 62.7%
viability, T/C (second compound 0.003 µM, first compound 1 µM): 67%
viability, T/C (second compound 0.00949 µM, first compound 0.00316 µM): 69.7%
viability, T/C (second compound 0.00949 µM, first compound 0.01 µM): 62%
viability, T/C (second compound 0.00949 µM, first compound 0.0316 µM): 70.1%
viability, T/C (second compound 0.00949 µM, first compound 0.1 µM): 76.1%
viability, T/C (second compound 0.00949 µM, first compound 0.316 µM): 63.6%
viability, T/C (second compound 0.00949 µM, first compound 1 µM): 58.2%
viability, T/C (second compound 0.03 µM, first compound 0.00316 µM): 93.4%
viability, T/C (second compound 0.03 µM, first compound 0.01 µM): 84.5%
viability, T/C (second compound 0.03 µM, first compound 0.0316 µM): 92.3%
viability, T/C (second compound 0.03 µM, first compound 0.1 µM): 81.2%
viability, T/C (second compound 0.03 µM, first compound 0.316 µM): 81.2%
viability, T/C (second compound 0.03 µM, first compound 1 µM): 97.2%
viability, T/C (second compound 0.0949 µM, first compound 0.00316 µM): 116%
viability, T/C (second compound 0.0949 µM, first compound 0.01 µM): 95.8%
viability, T/C (second compound 0.0949 µM, first compound 0.0316 µM): 101%
viability, T/C (second compound 0.0949 µM, first compound 0.1 µM): 102%
viability, T/C (second compound 0.0949 µM, first compound 0.316 µM): 97.6%
viability, T/C (second compound 0.0949 µM, first compound 1 µM): 98%
viability, T/C (second compound 0.3 µM, first compound 0.00316 µM): 96.8%
viability, T/C (second compound 0.3 µM, first compound 0.01 µM): 93.4%
viability, T/C (second compound 0.3 µM, first compound 0.0316 µM): 90.7%
viability, T/C (second compound 0.3 µM, first compound 0.1 µM): 88.6%
viability, T/C (second compound 0.3 µM, first compound 0.316 µM): 84.3%
viability, T/C (second compound 0.3 µM, first compound 1 µM): 91.1%

CC1(C)CCC(Nc2ncc(C(F)(F)F)c(-c3c[nH]c4c(P(C)(C)=O)c(C#N)ccc34)n2)CN1 (centres undefined) + CCn1c(-c2cc(N3CCN(C)CC3)cnc2C(C)OC)c2c3cc(ccc31)-c1csc(n1)CC(NC(=O)C1CC1C)C(=O)N1CCCC(N1)C(=O)OCC(C)(C)C2
IC50 (second compound 0.000949 µM): 0.045 µM
IC50 (second compound 0.003 µM): 0.0459 µM
IC50 (second compound 0.00949 µM): 0.0274 µM
IC50 (second compound 0.03 µM): 0.0322 µM
IC50 (second compound 0.0949 µM): 0.0308 µM
IC50 (second compound 0.3 µM): 0.0376 µM
viability, T/C (second compound 0.000949 µM, first compound 0.000949 µM): 84.8%
viability, T/C (second compound 0.000949 µM, first compound 0.003 µM): 77.5%
viability, T/C (second compound 0.000949 µM, first compound 0.00949 µM): 78.1%
viability, T/C (second compound 0.000949 µM, first compound 0.03 µM): 57.4%
viability, T/C (second compound 0.000949 µM, first compound 0.0949 µM): 35.8%
viability, T/C (second compound 0.000949 µM, first compound 0.3 µM): 28%
viability, T/C (second compound 0.003 µM, first compound 0.000949 µM): 73.1%
viability, T/C (second compound 0.003 µM, first compound 0.003 µM): 66.7%
viability, T/C (second compound 0.003 µM, first compound 0.00949 µM): 65.3%
viability, T/C (second compound 0.003 µM, first compound 0.03 µM): 58%
viability, T/C (second compound 0.003 µM, first compound 0.0949 µM): 37.9%
viability, T/C (second compound 0.003 µM, first compound 0.3 µM): 29.1%
viability, T/C (second compound 0.00949 µM, first compound 0.000949 µM): 68.2%
viability, T/C (second compound 0.00949 µM, first compound 0.003 µM): 71.7%
viability, T/C (second compound 0.00949 µM, first compound 0.00949 µM): 61.5%
viability, T/C (second compound 0.00949 µM, first compound 0.03 µM): 50.7%
viability, T/C (second compound 0.00949 µM, first compound 0.0949 µM): 31.8%
viability, T/C (second compound 0.00949 µM, first compound 0.3 µM): 32.1%
viability, T/C (second compound 0.03 µM, first compound 0.000949 µM): 76%
viability, T/C (second compound 0.03 µM, first compound 0.003 µM): 70.6%
viability, T/C (second compound 0.03 µM, first compound 0.00949 µM): 72.4%
viability, T/C (second compound 0.03 µM, first compound 0.03 µM): 50.8%
viability, T/C (second compound 0.03 µM, first compound 0.0949 µM): 37%
viability, T/C (second compound 0.03 µM, first compound 0.3 µM): 36.2%
viability, T/C (second compound 0.0949 µM, first compound 0.000949 µM): 111%
viability, T/C (second compound 0.0949 µM, first compound 0.003 µM): 113%
viability, T/C (second compound 0.0949 µM, first compound 0.00949 µM): 88.6%
viability, T/C (second compound 0.0949 µM, first compound 0.03 µM): 50.5%
viability, T/C (second compound 0.0949 µM, first compound 0.0949 µM): 39.5%
viability, T/C (second compound 0.0949 µM, first compound 0.3 µM): 33.5%
viability, T/C (second compound 0.3 µM, first compound 0.000949 µM): 97.8%
viability, T/C (second compound 0.3 µM, first compound 0.003 µM): 98.7%
viability, T/C (second compound 0.3 µM, first compound 0.00949 µM): 72.6%
viability, T/C (second compound 0.3 µM, first compound 0.03 µM): 53.8%
viability, T/C (second compound 0.3 µM, first compound 0.0949 µM): 42.2%
viability, T/C (second compound 0.3 µM, first compound 0.3 µM): 37%
